Data: patent publication US4698329A, “New renin-inhibitory peptides and their use” (Sankyo Company, Limited, priority 1984, dated 1987)
Square brackets hold non-standard residues; d marks the D form. Peptide text beside a SMILES is read from it. * marks the point of attachment. 1Nal = N[C@@H](Cc1cccc2ccccc12)C(=O)O; Sta = CC(C)C[C@H](N)[C@@H](O)CC(=O)O; Cbz = O=C(OCc1ccccc1)*; NHBu = CCCCN*; NHNH2 = NN*

Biological target: T1, human renin (Homo sapiens, UniProt P00797)
T1 sequence (P00797 67-406): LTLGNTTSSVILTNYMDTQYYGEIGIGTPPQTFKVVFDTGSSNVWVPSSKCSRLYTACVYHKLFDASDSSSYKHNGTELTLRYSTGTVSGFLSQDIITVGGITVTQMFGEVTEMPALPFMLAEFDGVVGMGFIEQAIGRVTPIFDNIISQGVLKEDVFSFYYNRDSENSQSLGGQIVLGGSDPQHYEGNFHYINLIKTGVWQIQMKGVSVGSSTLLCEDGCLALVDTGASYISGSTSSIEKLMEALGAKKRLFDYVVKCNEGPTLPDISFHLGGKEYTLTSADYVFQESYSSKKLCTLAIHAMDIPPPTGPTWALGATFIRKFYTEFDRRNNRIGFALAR
Test: Inhibition of renin activity (human renin, sheep angiotensinogen)
Assay type: biochemical
Settings: pH 7.3, 10 minutes at 37° C., mean of 3 or 4 experiments
Experimental: The ability of various compounds of the invention to inhibit the activity of renin was determined according to the following method, which follows essentially the procedure of Kokubu et al. [Hypertension, 5, 191-197 (1983)].
Specifically, each test compound was dissolved in 60% v/v aqueous ethanol. Human renin activity in the presence and absence of each compound was measured using sheep angiotensinogen. The total volume of 1 ml of assay mixture contained 0.1 mole/liter phosphate buffer (pH 7.3), human renin (equivalent to 0.5 ng angiotensin I per ml per minute), sheep angiotensinogen (equivalent to 200 ng angiotensin I), the indicated concentration of the test compound, 6% ethanol and angiotensinase inhibitors (10 mmole/liter sodium ethylenediaminetetraacetate and 3.4 mmole/liter 8-hydroxyquinoline). The mixture was allowed to react for 10 minutes at 37° C., and then the reaction was stopped by placing the reaction tube in a boiling water bath for 5 minutes. The mixture was then centrifuged and the supernatant (0.05-0.1 ml) was used to assay remaining angiotensin I.
An identical experiment was carried out, as a control, except that the test compound was omitted. From the values obtained were calculated the % inhibition of renin activity achieved by each test compound. The results are shown in the following Table, in which the compounds of the invention are identified by the numbers assigned to them in the foregoing list. The values given are the mean of 3 or 4 experiments.

[1] = concentration of test cpd. 1 × 10^-5 M
[2] = concentration of test cpd. 1 × 10^-6 M

% Inhibition (human renin) [1] [%] | % Inhibition (human renin) [2] [%] | Structure (SMILES)
53 |  | COC(=O)[C@@H](O)[C@H](CC(C)C)NC(=O)[C@H](Cc1c[nH]cn1)NC(=O)[C@H](Cc1cccc2ccccc12)NC(=O)OCc1ccccc1 [Compound 62, methyl 3(S)-[N-benzyloxycarbonyl-3-(1-naphthyl)-L-alanyl-L-histidyl]amino-2(S)-hydroxy-5-methylhexanoate]
96 |  | CCNC(=O)C[C@H](O)[C@H](CC(C)C)NC(=O)[C@H](Cc1c[nH]cn1)NC(=O)[C@H](Cc1cccc2ccccc12)NC(=O)OCc1ccccc1 [Compound 66, 4(S)-[N-benzyloxycarbonyl-3-(1-naphthyl)-L-alanyl-L-histidyl]amino-N-ethyl-3(S)-hydroxy-6-methylheptanamide] (Cbz-[1Nal]-His-[Sta]-NHEt)
 | 99.1 | CC[C@H](C)[C@@H](CO)NC(=O)C[C@H](O)[C@H](CC(C)C)NC(=O)[C@H](CC(C)C)NC(=O)[C@H](Cc1cccc2ccccc12)NC(=O)OCc1ccccc1 [Compound 208, N-{4(S)-[N-benzyloxycarbonyl-3-(1-naphthyl)-L-alanyl-L-leucyl]amino-3(S)-hydroxy-6-methylheptanoyl}-L-isoleucinol]
95 |  | CCCCNC(=O)C[C@H](O)[C@H](CC(C)C)NC(=O)[C@H](Cc1c[nH]cn1)NC(=O)[C@H](Cc1cccc2ccccc12)NC(=O)OCc1ccccc1 [Compound 64, 4(S)-[N-benzyloxycarbonyl-3-(1-naphthyl)-L-alanyl-L-histidyl]amino-N-butyl-3(S)-hydroxy-6-methylheptanamide] (Cbz-[1Nal]-His-[Sta]-NHBu)
99 |  | CC[C@H](C)CNC(=O)C[C@H](O)[C@H](CC(C)C)NC(=O)[C@H](Cc1c[nH]cn1)NC(=O)[C@H](Cc1cccc2ccccc12)NC(=O)OCc1ccccc1 [Compound 65, 4(S)-[N-benzyloxycarbonyl-3-(1-naphthyl)-L-alanyl-L-histidyl]amino-3(S)-hydroxy-6-methyl-N-[S-(-)-2-methylbutyl]heptanamide]
84 |  | CC(C)C[C@H](NC(=O)[C@H](Cc1c[nH]cn1)NC(=O)[C@H](Cc1cccc2ccccc12)NC(=O)OCc1ccccc1)[C@@H](O)CC(=O)NNC(=O)CCCc1ccccc1 [Compound 39, N^1 -{4(S)-[N-benzyloxycarbonyl-3-(1-naphthyl)-L-alanyl-L-histidyl]amino-3(S)-hydroxy-6-methylheptanoyl}-N^2-(4-phenylbutyryl)hydrazine]
 | 98.2 | CCC(C)CNC(=O)C[C@H](O)[C@H](CC(C)C)NC(=O)C(Cc1cscn1)NC(=O)[C@H](Cc1cccc2ccccc12)NC(=O)OCc1ccccc1 (mixture of isomers) [Compound 238, N-(2-methylbutyl)-4(S)-[N-benzyloxycarbonyl-3-(1-naphthyl)-L-alanyl-3-(1,3-thiazol-4-yl)-DL-alanyl]amino-3(S)-hydroxy-6-methylheptanamide]
79 |  | CCOC(=O)C[C@H](O)[C@H](CC(C)C)NC(=O)[C@H](Cc1c[nH]cn1)NC(=O)[C@H](Cc1cccc2ccccc12)NC(=O)OCc1ccccc1 [Compound 5, ethyl 4(S)-[N-benzyloxycarbonyl-3-(1-naphthyl)-L-alanyl-L-histidyl]amino-3(S)-hydroxy-6-methylheptanoate] (Cbz-[1Nal]-His-[Sta]-OEt)
99 |  | CCC(C)CNC(=O)C[C@H](O)[C@H](CC(C)C)NC(=O)[C@@H](Cc1c[nH]cn1)NC(=O)[C@H](Cc1cccc2ccccc12)NC(=O)OCc1ccccc1 (stereo partly drawn) [Compound 93, 4(S)-[N-benzyloxycarbonyl-3-(1-naphthyl)-L-alanyl-D-histidyl]amino-3(S)-hydroxy-6-methyl-N-(2-methylbutyl)heptanamide]
84 |  | CC(C)C[C@H](NC(=O)[C@H](Cc1c[nH]cn1)NC(=O)[C@H](Cc1cccc2ccccc12)NC(=O)OCc1ccccc1)[C@@H](O)CC(=O)N1CCC(c2ccccc2)CC1 [Compound 36, 1-{4(S)-[N-benzyloxycarbonyl-3-(1-naphthyl)-L-alanyl-L-histidyl]amino-3(S)-hydroxy-6-methylheptanoyl}-4-phenylpiperidine]
 | 98.4 | CCC(C)CNC(=O)C[C@H](O)[C@H](CC(C)C)NC(=O)[C@H](CC(C)C)NC(=O)[C@H](Cc1cccc2ccccc12)NC(=O)OCc1ccccc1 (stereo partly drawn) [Compound 207, N-(2-methylbutyl)-4(S)-[N-benzyloxycarbonyl-3-(1-naphthyl)-L-alanyl-L-leucyl]amino-3(S)-hydroxy-6-methylheptanamide]
98 |  | CC[C@H](C)[C@@H](CO)NC(=O)C[C@H](O)[C@H](CC(C)C)NC(=O)[C@H](Cc1c[nH]cn1)NC(=O)[C@H](Cc1cccc2ccccc12)NC(=O)OCc1ccccc1 [Compound 67, N-{4(S)-[N-benzyloxycarbonyl-3-(1-naphthyl)-L-alanyl-L-histidyl]amino-3(S)-hydroxy-6-methylheptanoyl}-L-isoleucinol]
72 |  | CC(C)C[C@H](NC(=O)[C@H](Cc1c[nH]cn1)NC(=O)[C@H](Cc1cccc2ccccc12)NC(=O)OCc1ccccc1)[C@@H](O)CC(=O)O [Compound 3, 4(S)-[N-benzyloxycarbonyl-3-(1-naphthyl)-L-alanyl-L-histidyl]amino-3(S)-hydroxy-6-methylheptanoic acid] (Cbz-[1Nal]-His-[Sta]-OH)
89 |  | CC(C)C[C@H](NC(=O)[C@H](Cc1c[nH]cn1)NC(=O)[C@H](Cc1cccc2ccccc12)NC(=O)OCc1ccccc1)[C@@H](O)CC(=O)NN [Compound 38, 4(S)-[N-benzyloxycarbonyl-3-(1-naphthyl)-L-alanyl-L-histidyl]amino-3(S)-hydroxy-6-methylheptanoic acid hydrazide] (Cbz-[1Nal]-His-[Sta]-NHNH2)
